Data on 11 compounds can be found in BindingDB's records for patent US11078201 (Nimbus Saturn, 2021).

pIC50: −log10 of the molar value.

The target of this test is Mitogen-activated protein kinase kinase kinase kinase 1 (Homo sapiens, UniProt Q92918). Nature of the test: Biochemical Enzyme Assay. The procedure: HPK1 biochemical enzyme assay: HPK1 enzyme inhibition was measured using a microfluidic mobility shift assay. […] Test compounds were titrated in ten point curves (top final assay concentration […]), and preincubated with enzyme/substrate mix for 30 min prior to initiation of the reaction by addition of ATP (1 mM final concentration) and substrate (1 μM final concentration; Carna Biosciences) diluted in assay buffer supplemented by MgCl2 (final assay concentration of 5 mM). Following 60 min incubation at RT, the reaction was terminated by addition of 60 µl/well termination buffer (Carna Biosciences) and signal determination using a Caliper EZ Reader (Perkin Elmer, UK).
Chain of Mitogen-activated protein kinase kinase kinase kinase 1 (Q92918 whole entry): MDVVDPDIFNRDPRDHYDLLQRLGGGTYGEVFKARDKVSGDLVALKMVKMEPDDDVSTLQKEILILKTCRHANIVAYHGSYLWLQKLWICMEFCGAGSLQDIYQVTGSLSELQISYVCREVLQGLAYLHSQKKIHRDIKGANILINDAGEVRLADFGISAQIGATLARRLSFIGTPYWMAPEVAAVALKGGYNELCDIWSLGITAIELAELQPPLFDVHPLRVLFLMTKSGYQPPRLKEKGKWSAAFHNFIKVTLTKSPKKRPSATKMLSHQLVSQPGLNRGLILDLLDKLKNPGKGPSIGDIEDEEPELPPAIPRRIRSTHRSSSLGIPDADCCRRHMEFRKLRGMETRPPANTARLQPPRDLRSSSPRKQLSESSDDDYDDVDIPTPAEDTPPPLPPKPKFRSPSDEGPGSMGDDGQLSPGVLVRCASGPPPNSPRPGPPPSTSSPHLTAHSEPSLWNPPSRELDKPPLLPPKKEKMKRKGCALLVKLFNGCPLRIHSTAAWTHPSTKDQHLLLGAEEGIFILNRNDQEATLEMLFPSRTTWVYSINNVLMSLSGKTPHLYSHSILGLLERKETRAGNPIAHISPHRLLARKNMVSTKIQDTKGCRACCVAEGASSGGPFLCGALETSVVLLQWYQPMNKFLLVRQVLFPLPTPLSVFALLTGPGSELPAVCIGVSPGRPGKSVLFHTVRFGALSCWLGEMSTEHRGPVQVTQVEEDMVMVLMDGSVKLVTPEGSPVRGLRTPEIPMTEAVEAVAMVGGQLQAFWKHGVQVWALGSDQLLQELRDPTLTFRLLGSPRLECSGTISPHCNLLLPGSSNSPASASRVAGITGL
Take `Cn1ccc2c(-c3ncc(NC4C=CC(C5CCOC5)=C(CN5CCCC5)N4)c4c3CNC4=O)ccnc21` (stereo unspecified) [US11078201, Compound I-552]: the pIC50 was greater than 7.00.

In turn, `O=C1NCc2c(-c3cnc4cc(F)ccn34)ccc(Nc3ccc(N4C[C@@H]5CC[C@@H](C5)C4)cn3)c21` [US11078201, Compound I-404] gave a pIC50 greater than 7.00.

`CN1C=CC2=C(c3ncc(Nc4cccc(N5CC[C@H]6CNC[C@H]65)n4)c4c3CNC4=O)C=CNC21` (stereo partly specified) [US11078201, Compound I-440] gave a pIC50 greater than 7.00.

The compound `CO[C@@H]1CN(c2ccc(Nc3ccc(-c4cnn5c4CCCC5)c4c3C(=O)NC4)nc2)[C@@H](CO)CO1` [US11078201, Compound I-571] gave a pIC50 greater than 7.00.

Compound `O=C1NCc2c(-c3cnn4nccnc34)ccc(Nc3ccc(N4CCC(O)CC4)cn3)c21` [US11078201, Compound I-157] gave a negative-log IC50 (pIC50) greater than 7.00.

Turning to `O=C1NCc2c(-c3cnc4cc(F)ccn34)ccc(Nc3ccc(N4CC5CCC(C5)C4)cn3)c21` [US11078201, Compound I-405], the pIC50 is greater than 7.00.

The compound `CN[C@@H]1CCCN(c2ccc(Nc3ccc(-c4ccnc5c4c(C)cn5C)c4c3C(=O)NC4)nc2)C1` [US11078201, Compound I-100] gave a pIC50 greater than 7.00.

`CN(C)Cc1nc(Nc2ccc(-c3cnc4cc(F)ccn34)c3c2C(=O)NC3)ccc1C1CC[C@@H](F)[C@H](O)C1` (stereo partly specified) [US11078201, Compound I-700] had a pIC50 greater than 7.00.

Consider `CN1CCN(C2=CNC(Nc3cnc(-c4c(-c5ccccc5)[nH]c5ccccc45)c4c3C(=O)NC4)C=C2)CC1` (stereo unspecified) [US11078201, Compound I-141], for which the pIC50 is greater than 7.00.

The compound `Cn1cnc2c(-c3ccc(Nc4ccc(N5CCNCC5)cn4)c4c3CNC4=O)ccnc21` [US11078201, Compound I-122] had a pIC50 greater than 7.00.

Regarding `CN(C)Cc1nc(Nc2ccc(-c3cnc4cc(F)ccn34)c3c2C(=O)NC3)ccc1C1CC[C@H](F)[C@@H](O)C1` (stereo partly specified) [US11078201, Compound I-701], the pIC50 is greater than 7.00.

In general, pIC50 refers to the IC50 on a negative log10 scale, so that one unit is a factor of ten. A low value points to a high IC50.
